These results are taken from PubChem BioAssay (NCI).

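Assay format: 96-well plates, 48-hour exposure. At the GI50, growth is halved. The concentration for full growth arrest is given as TGI.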

Common to all, as to experiment: NCI-60 cell line screen, 48 h
The test system of experiment [1] is COLO 205 colon.
Experiment [2] relates to HS 578T breast.
For experiment [3], the system named is CCRF-CEM leukemia.
The subject of experiment [4] is PC-3 prostate.
Experiment [5] has as its system UACC-257 melanoma.
The test system of experiment [6] is ACHN renal.
For experiment [7], the system named is A549 NSCLC.
Experiment [8] concerns SF-295 CNS.
For experiment [9], the system named is NCI-H23 lung.
Experiment [10] deals with TK-10 renal.

For the compound `O=C(Nc1ccc(-n2cc(-c3ccncc3)c(-c3ccc(Cl)c(O)c3)n2)cc1)c1cc(Cl)cc(Cl)c1`, the GI50 was 9.36 µM in [1]; 4.3 µM in experiment [2]; 4.25 µM in experiment [3]; 3.87 µM in [4]; 5.68 µM in experiment [5]; 10.4 µM in experiment [6]. For the same compound, the GI50 in experiment [7] was more than 28 µM; in [8], 0.738 µM; in experiment [9], 7.41 µM; in experiment [10], more than 19.9 µM. Also, the TGI in experiment [1], in experiment [2], in experiment [3], in [4], in [5] and in experiment [6] was more than 100 µM in each case. Also, the TGI in experiment [7] is more than 100 µM; in experiment [8], 2.79 µM; in [9], more than 100 µM; in [10], more than 100 µM.

Regarding `CCOC(=O)c1c(C)c2c(n1C)CSc1cc(S(=O)(=O)c3ccccc3)c(=O)[nH]c1-2`, the GI50 in experiment [1] was 14.3 µM; in [2], 40.1 µM; in experiment [3] it was 27.5 µM; in experiment [4] it was 14 µM; in experiment [5], 34.5 µM; in experiment [6], 26.3 µM. Moreover, the GI50 in [7] is 30.2 µM; in experiment [8] it was 14 µM; in experiment [9], 28.6 µM; in experiment [10] it was 34.4 µM. Moreover, the TGI in experiment [1] was 36.3 µM; in [2], more than 100 µM; in experiment [3] it was more than 100 µM; in [4] it was more than 100 µM; in experiment [5] it was more than 100 µM; in [6], more than 100 µM. Besides, the TGI in [7] was more than 100 µM; in [8], 61.9 µM; in experiment [9], more than 100 µM; in [10], more than 100 µM.

Regarding `O=C=Nc1ccc(Cc2ccc(N=C=O)cc2)cc1` (tested in a mixture with another compound), the GI50 in [1], in [2], in experiment [3], in experiment [4], in [5] and in experiment [6] was more than 25 µg/mL each time. The GI50 in experiment [7], in experiment [8], in experiment [9] and in experiment [10] was more than 25 µg/mL throughout. Besides, the TGI in experiment [1], in experiment [2], in [3], in experiment [4], in experiment [5] and in experiment [6] was more than 25 µg/mL in each case. Also, the TGI in experiment [7], in experiment [8], in experiment [9] and in experiment [10] was more than 25 µg/mL in each case.

With `O=C(N/N=C/c1cc2ccccc2c2ccccc12)c1cc(O)c(O)c(O)c1`, the GI50 is 3.14 µM in experiment [1]; 2.67 µM in experiment [2]; 2.87 µM in [3]; 3.28 µM in experiment [4]; 10.2 µM in experiment [5]; 3.25 µM in experiment [6]. The GI50 in experiment [7] was 12.7 µM; in experiment [8], 14.9 µM; in [9] it was 3.4 µM; in experiment [10], 4.48 µM. Also, the TGI in experiment [1] is 10.9 µM; in experiment [2], 8.86 µM; in [3], more than 100 µM; in experiment [4], 15.6 µM; in experiment [5], 24.6 µM; in [6], 12.6 µM. Besides, the TGI in experiment [7] is 39.2 µM; in experiment [8], 32.1 µM; in [9], 14.3 µM; in [10], 30.7 µM.

Turning to `CC1=COC2=C(C)C(=O)C(=O)c3c(C)ccc1c32`, the TGI in experiment [1] is 8.91 µM; in experiment [2] it was more than 95.7 µM; in experiment [3], more than 76.1 µM; in experiment [4], 22.5 µM; in [5] it was 20.6 µM; in experiment [6] it was 29.5 µM. Besides, the TGI in [7] was 15.2 µM; in experiment [8], 18.8 µM; in [9], 14.3 µM; in experiment [10] it was more than 92.6 µM.

For `COc1cc(/C=C2\C(=O)N(c3c(Cl)cccc3Cl)c3ccccc32)cc(OC)c1O`, the GI50 in experiment [1] is 5.94 µM; in [2] it was 8.98 µM; in experiment [3], 0.555 µM; in [4], 1.44 µM; in [5], 2.19 µM; in experiment [6], 0.59 µM. Moreover, the GI50 in experiment [7] is 1.24 µM; in experiment [8], 0.702 µM; in experiment [9] it was 1.47 µM; in experiment [10] it was 1.21 µM. The TGI is 18.7 µM in experiment [1]; more than 27.8 µM in [2]; 19.9 µM in experiment [3]; 27.1 µM in experiment [4]; 19.6 µM in experiment [5]; 14.2 µM in experiment [6]. In addition, the TGI in [7] was 10.1 µM; in [8], 16.7 µM; in experiment [9] it was 14.4 µM; in experiment [10], 15.6 µM.

In the case of `C#C[C@]1(O)CC[C@H]2[C@@H]3CC=C4c5nc(Nc6ccc(OC)cc6OC)sc5CC[C@]4(C)[C@H]3CC[C@@]21C`, the GI50 is 2.14 µM in experiment [1]; 0.411 µM in experiment [2]; 0.544 µM in experiment [3]; 0.845 µM in experiment [4]; 1.57 µM in experiment [5]; 2.06 µM in experiment [6]. Moreover, the GI50 was 2.68 µM in [7], 0.249 µM in experiment [8], 2.18 µM in experiment [9] and 3.9 µM in [10]. The TGI was 4.78 µM in experiment [1]; 2.36 µM in experiment [2]; 11 µM in experiment [3]; 9.02 µM in experiment [4]; 4.99 µM in experiment [5]; 10.2 µM in experiment [6]. Also, the TGI was determined as 43.9 µM in [7], 0.613 µM in experiment [8], 12 µM in experiment [9] and 15.6 µM in experiment [10].

Consider `NC(=O)c1c(OCc2c(F)cc(Br)cc2F)nsc1NC(=O)NCCCCN1CCCC1`, for which the GI50 is 1.9 µM in experiment [1]; 0.157 µM in experiment [2]; 2.77 µM in experiment [3]; 3.14 µM in [4]; 1.85 µM in [5]; 1.18 µM in experiment [6]. In addition, the GI50 is 2.97 µM in experiment [7], 2.26 µM in [8], 5.18 µM in experiment [9] and 2.06 µM in experiment [10]. The TGI in [1] is 4.05 µM; in [2], 0.971 µM; in experiment [3], 8.17 µM; in experiment [4] it was more than 10 µM; in [5], 3.94 µM; in [6] it was 5.25 µM. Besides, the TGI was more than 10 µM in experiment [7], more than 10 µM in experiment [8], more than 10 µM in [9] and 7.94 µM in experiment [10].
